Measurements from patent US20090181910A1, “METHOD OF PREVENTION AND ALLEVIATION OF TOXICITY BY MODULATION OF IRF3” (priority 2006, published 2009).

Legend:
[1] = tested on: RXRα; experiment: Liver RNA Q-PCR, polyI:C/APAP-treated mice: RXRα; type: in vivo; conditions: single polyI:C 100 μg i.v. 24 h before APAP 350 mg/kg i.p.; wildtype vs IRF3−/− mice; FIG. 1A
Protocol: FIG. 1: PolyI:C repression of RXRα and cytochrome P450 family members involves IRF3. Wildtype or IRF3−/− mice (n=4) fasted and were treated with 0.1% NaCl or polyI:C (100 μg) intravenous (i.v.) 24 hours prior to treatment with APAP (350 mg/kg) by intraperitoneal (i.p.) injection. 6 hours post-APAP treatment liver samples were isolated. Liver RNA analyzed by Q-PCR for (A) RXRα (B) Cyp1A2 and (C) Cyp3A11.
Age and sex matched 6-9 week old mice were used for all experiments. C57/B16 mice were obtained from Jackson Laboratory. IRF3^−/− mice were obtained from Dr. T. Taniguchi. For APAP hepatotoxicity analysis, mice fasted for […] and then administered Vehicle (0.1% NaCl) or APAP (175-600 mg/kg) by intraperitoneal injection (i.p.). For serum and histological studies, mice were sacrificed at 6-7 hours post injection and serum and liver samples were retrieved. For survival studies, mice were studied for up to 5 days. For polyI:C studies, mice were also treated with 0.1% NaCl or polyI:C (100 μg) intravenous (i.v.) 12-24 hours prior to APAP treatment. […] Serum alanine aminotransferase (ALT) levels were determined using manufacturer's protocol (TECO Diagnostics). […]
For quantitative realtime PCR (Q-PCR), total RNA was isolated and cDNA synthesized according to manufacturer's protocol: Trizol (RNA) and Bio-Rad iScript (cDNA). […]

[2] = Survival following APAP treatment; type: in vivo, mice; conditions: for survival against APAP overdose: APAP 600 mg/kg
Protocol: FIG. 4: Percentage survival following APAP treatment with or without polyI:C. (A) Wildtype (n=8) fasted and were treated with 0.1% NaCl or polyI:C (100 μg) intravenous (i.v.) 24 hours prior to treatment with APAP (600 mg/kg) by intraperitoneal (i.p.) injection. (B) Wildtype and IRF3−/− (n=6-8) fasted and were treated with 0.1% NaCl or polyI:C (100 μg) intravenous (i.v.) 24 hours prior to treatment with APAP (600 mg/kg) by intraperitoneal (i.p.) injection. (C) Wildtype mice (n=6-8) fasted and were treated with 0.1% NaCl or polyI:C (100 μg) intravenous (i.v.) and PCN (75 mg/kg) intraperitoneal (i.p.) 24 hours prior to treatment with APAP (175 mg/kg) by intraperitoneal (i.p.) injection.
Age and sex matched 6-9 week old mice were used for all experiments. C57/B16 mice were obtained from Jackson Laboratory. IRF3^−/− mice were obtained from Dr. T. Taniguchi. For APAP hepatotoxicity analysis, mice fasted for […] and then administered Vehicle (0.1% NaCl) or APAP (175-600 mg/kg) by intraperitoneal injection (i.p.). For serum and histological studies, mice were sacrificed at 6-7 hours post injection and serum and liver samples were retrieved. For survival studies, mice were studied for up to 5 days. For polyI:C studies, mice were also treated with 0.1% NaCl or polyI:C (100 μg) intravenous (i.v.) 12-24 hours prior to APAP treatment. To study the effects of PCN on APAP treatment, mice were treated with PCN (75 mg/kg) or control (1% DMSO, corn oil) by intraperitoneal (i.p.) 12-24 hours prior to APAP treatment. To study the effects of ethanol (EtOH) on APAP treatment, mice were given 20% EtOH in water ad libidum for 5 days prior to APAP therapy. PolyI:C treatment for these experiments occurred at Day 3 and Day 5. Serum alanine aminotransferase (ALT) levels were determined using manufacturer's protocol (TECO Diagnostics). For H&E staining, liver samples were fixed in formalin for 48 hours. H&E stainings were done by UCLA Tissue Procurement Core Laboratory (TPCL).

[3] = tested on: RXRα; parameters: species or system mice; conditions: mouse, in vivo
[4] = tested on: CYP24; parameters: species or system mice; conditions: mouse, in vivo
[5] = tested on: hepatic LXR, FXR and PPARα target genes; type: cell-based, human
[6] = tested on: RXRα; type: cell-based, Murine
[7] = tested on: ZNF202; experiment: BMM Q-PCR: ZNF202 mRNA; type: cell-based, Murine; conditions: polyI:C and LPS; data not shown
[8] = tested on: UGT1A6; parameters: species or system mice; conditions: mouse, in vivo
[9] = mouse, in vivo
[10] = mouse, in vivo; remark: listed apart in the source
[11] = mouse, in vivo; remark: listed apart in the source
[12] = Hendrix et al. 1993; cited from earlier work
[13] = tested on: CYP3A4; experiment: Huh7 Q-PCR: CYP3A4
[14] = Serum ALT in APAP hepatotoxicity
[15] = H&E liver histology in APAP hepatotoxicity; conditions: for prevention of APAP-induced necrosis: FIG. 3A
[16] = tested on: Cyp1A2; experiment: Liver RNA Q-PCR, polyI:C/APAP-treated mice: Cyp1A2; conditions: polyI:C 100 μg i.v.; FIG. 1B

In the case of “polyinosinic:polycytidylic acid [polyI:C]”, the “RXRα mRNA in liver” value [1] is reported as “potent downregulation of RXRα mRNA in an IRF3 dependent manner”, the “survival against APAP overdose” value ([2]; IRF3 deficient mice, FIG. 4B) is reported as “did not protect from APAP overdose” and the “survival with APAP plus PCN” value ([2]; polyI:C 100 μg i.v. and PCN 75 mg/kg before APAP 175 mg/kg, FIG. 4C) is reported as “prevents overdose from the combination of APAP and cytochrome P450 inducers such as PCN”. The “survival against APAP overdose” value ([2]; wildtype mice, polyI:C 100 μg i.v. 24 h prior, FIG. 4A) was “extremely effective at preventing death from APAP overdose”, the “IRF3 dependence of repression of RXRα and hepatic nuclear receptor target genes” value [3] was “IRF3 was critical for the repression of RXRα and hepatic nuclear receptor target genes” and the “RXRα mRNA expression in liver” value ([3]; iv) was “significant reduction in RXRα mRNA expression”. The “effect on induction of CYP24 mRNA by 1,25(OH)2D3” value [4] was “blunted”, the “effect on LXR, FXR and PPARα-mediated induction of target genes” value [5] was “inhibited” and the “polyI:C-mediated inhibition of RXRα mRNA in knockout BMMs” value [6] was “defective in IRF3^−/− BMMs but not IFNAR^−/− BMMs”. For the same substance, the “RXRα mRNA repression, extended time course” value ([6]; 1, 4 or 8 hrs, FIG. 8b) was “more potent repressor of RXRα mRNA than LPS”, the “RXRα mRNA in BMMs” value ([6]; LPS 10 ng/ml or polyI:C 1 μg/ml, 4 hours, FIG. 8a) was “repressed RXRα mRNA” and the RXRα primary transcripts ([6]; polyI:C 4 or 8 hrs, exon-intron primers, FIG. 9a) was “strongly repressed”. The “RXRα mRNA stability” value ([6]; polyI:C 2 hours then Actinomycin D, FIG. 9a) was “No significant differences”, the “ZNF202 mRNA levels” value [7] was “unaffected” and the “IRF3 dependence of UGT1A6 repression” value [8] was “dependent on IRF3”. The “effect on ASA or PCN induction of UGT1A6 mRNA” value [8] was “diminished”, the “LCA-mediated serum ALT increase and liver damage” value [9] was “failed to promote LCA-mediated increases of serum ALT levels or enhance liver damage” and the “serum ALT levels, agent alone” value [9] was “did not significantly increase serum ALT levels”. For the same substance, the liver damage [10] was “strongly induced liver damage”, the “hepatotoxicity, agent alone” value [11] was “did not cause significant hepatotoxicity” and the “toxicity of polyI:C” value [12] was “can be taken at high dosages without any toxicity”. The “rifampicin induction of CYP3A4” value ([13]; Huh7 cells with RXRα overexpression, FIG. 10e) was “no longer repressed CYP3A4”, the “rifampicin induction of CYP3A4” value ([13]; Huh7 cells, rifampicin 25 μM, transfected polyI:C 2 μg/ml) was “capable of repressing rifampicin induction” and the “prevention of ethanol-promoted APAP induction of serum ALT” value ([14]; 20% EtOH 5 days, polyI:C Day 3 and Day 5, APAP 175 mg/kg, FIG. 2C) was “effective at preventing ethanol from promoting APAP induction of serum ALT levels”. For the same substance, the “prevention of PCN/APAP induction of serum ALT” value ([14]; polyI:C 100 μg i.v. and PCN 75 mg/kg 24 h before APAP 175 mg/kg, FIG. 2B) was “capable of preventing PCN/APAP induction of serum ALT levels”, the “prevention of APAP-induced serum ALT increase” value ([14]; polyI:C 100 μg i.v. pretreatment, APAP 350 mg/kg, wildtype and IRF3-deficient mice, FIG. 2A) was “effectively prevented such increase in serum ALT only when IRF3 was present” and the “prevention of cell necrosis” value ([15]; PCN or ethanol plus lower levels of APAP, FIG. 3B) was “prevents cell necrosis in these treatments as well”. The “prevention of APAP-induced necrosis” value ([15]; mice deficient in IRF3, APAP 350 mg/kg) was “only slightly reduced the severity of necrosis”, the “prevention of APAP-induced necrosis” value ([15]; wildtype mice, APAP 350 mg/kg) was “completely prevented such necrosis” and the “basal Cyp1A2 mRNA level in liver” value [16] was “potently repressed”.
